Measurements published in ChEMBL document CHEMBL1201862, “PubChem BioAssay data set” (2004).
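Protocol summary: plate cells (96-well), add compound at 5 concentrations, incubate 48 h, interpolate endpoints linearly. GI50 is the concentration that inhibits growth by half.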 Activity calls are given as the source filed them. Cut-off read from the data, not from the text of the source: active = GI50 up to about 1.1 µM and inactive = higher.

Experiments:
Experiment in all cases: DTP human tumour cell line panel, 48 h
786-0 = tested on: 786-0
A498 = tested on: A498
A549 = tested on: A549
ACHN = tested on: ACHN
BT-549 = tested on: BT-549
CAKI-1 = tested on: CAKI-1
COLO 205 = tested on: COLO 205
DU-145 = tested on: DU-145
EKVX = tested on: EKVX
HCC 2998 = tested on: HCC 2998
HCT-116 = tested on: HCT-116
HCT-15 = tested on: HCT-15
HL-60 = tested on: HL-60
HOP-62 = tested on: HOP-62
HOP-92 = tested on: HOP-92
HT-29 = tested on: HT-29
Hs-578T = tested on: Hs-578T
IGROV-1 = tested on: IGROV-1
K562 = tested on: K562
KM12 = tested on: KM12
LOX IMVI = tested on: LOX IMVI
M14 = tested on: M14
MCF7 = tested on: MCF7
MDA-MB-231 = tested on: MDA-MB-231
MDA-MB-435 = tested on: MDA-MB-435
MDA-N = tested on: MDA-N
MOLT-4 = tested on: MOLT-4
Malme-3M = tested on: Malme-3M
NCI-H226 = tested on: NCI-H226
NCI-H23 = tested on: NCI-H23
NCI-H460 = tested on: NCI-H460
NCI-H522 = tested on: NCI-H522
NCI/ADR-RES = tested on: NCI/ADR-RES
OVCAR-3 = tested on: OVCAR-3
OVCAR-4 = tested on: OVCAR-4
OVCAR-5 = tested on: OVCAR-5
OVCAR-8 = tested on: OVCAR-8
PC-3 = tested on: PC-3
RXF 393 = tested on: RXF 393
SF-268 = tested on: SF-268
SF-295 = tested on: SF-295
SF-539 = tested on: SF-539
SK-MEL-28 = tested on: SK-MEL-28
SK-MEL-2 = tested on: SK-MEL-2
SK-MEL-5 = tested on: SK-MEL-5
SK-OV-3 = tested on: SK-OV-3
SN12C = tested on: SN12C
SNB-19 = tested on: SNB-19
SNB-75 = tested on: SNB-75
SW-620 = tested on: SW-620
T47D = tested on: T47D
TK-10 = tested on: TK-10
U-251 = tested on: U-251
UACC-257 = tested on: UACC-257
UACC-62 = tested on: UACC-62
UO-31 = tested on: UO-31
CCRF-CEM = tested on: CCRF-CEM
RPMI-8226 = tested on: RPMI-8226

Structure (SMILES): OCCOCn1cc(Cn2ncc3c(SCc4ccccc4)ncnc32)nn1
- GI50 (786-0): 48.4 µM (inactive)
- GI50 (A498): 34.4 µM (inactive)
- GI50 (A549): 40.3 µM (inactive)
- GI50 (ACHN): 99.3 µM (inactive)
- GI50 (BT-549): 26.9 µM (inactive)
- GI50 (CAKI-1): 48.4 µM (inactive)
- GI50 (COLO 205): 31.3 µM (inactive)
- GI50 (DU-145): 43.7 µM (inactive)
- GI50 (EKVX): 38 µM (inactive)
- GI50 (HCC 2998): 51.1 µM (inactive)
- GI50 (HCT-116): 34.7 µM (inactive)
- GI50 (HCT-15): 37.4 µM
- GI50 (HL-60): 13.7 µM (inactive)
- GI50 (HOP-62): 48.1 µM (inactive)
- GI50 (HOP-92): 99.8 µM (inactive)
- GI50 (HT-29): 38.2 µM (inactive)
- GI50 (Hs-578T): 39.8 µM (inactive)
- GI50 (IGROV-1): 53.2 µM (inactive)
- GI50 (K562): 20.4 µM (inactive)
- GI50 (KM12): 32.3 µM (inactive)
- GI50 (LOX IMVI): 61.7 µM (inactive)
- GI50 (M14): 27.3 µM (inactive)
- GI50 (MCF7): 43.6 µM (inactive)
- GI50 (MDA-MB-231): 88.1 µM (inactive)
- GI50 (MDA-MB-435): 15.5 µM (inactive)
- GI50 (MDA-N): 14.4 µM (inactive)
- GI50 (MOLT-4): 14.4 µM (inactive)
- GI50 (Malme-3M): 76.2 µM (inactive)
- GI50 (NCI-H226): 62.8 µM (inactive)
- GI50 (NCI-H23): 38.3 µM (inactive)
- GI50 (NCI-H460): 38.3 µM (inactive)
- GI50 (NCI-H522): 25.4 µM (inactive)
- GI50 (NCI/ADR-RES): 31.8 µM (inactive)
- GI50 (OVCAR-3): 44.8 µM (inactive)
- GI50 (OVCAR-4): 59.3 µM (inactive)
- GI50 (OVCAR-5): 79.3 µM (inactive)
- GI50 (OVCAR-8): 91.8 µM (inactive)
- GI50 (PC-3): 69 µM (inactive)
- GI50 (RXF 393): 31.6 µM (inactive)
- GI50 (SF-268): 75.5 µM (inactive)
- GI50 (SF-295): 45.1 µM (inactive)
- GI50 (SF-539): 39 µM (inactive)
- GI50 (SK-MEL-28): > 100 µM (inactive)
- GI50 (SK-MEL-2): 37.2 µM (inactive)
- GI50 (SK-MEL-5): 30 µM (inactive)
- GI50 (SK-OV-3): 61.5 µM (inactive)
- GI50 (SN12C): 64.9 µM (inactive)
- GI50 (SNB-19): 85.7 µM (inactive)
- GI50 (SNB-75): 46 µM (inactive)
- GI50 (SW-620): 26.7 µM (inactive)
- GI50 (T47D): 27.5 µM (inactive)
- GI50 (TK-10): > 100 µM (inactive)
- GI50 (U-251): 44.1 µM (inactive)
- GI50 (UACC-257): 53.7 µM (inactive)
- GI50 (UACC-62): 37.1 µM (inactive)
- GI50 (UO-31): 61.8 µM (inactive)

Structure (SMILES): CC(C)/C(Cl)=N\OC(=O)NNc1ccccc1
- GI50 (786-0): 29 µM (inactive)
- GI50 (A498): 75.2 µM (inactive)
- GI50 (A549): 0.0721 µM (active)
- GI50 (ACHN): 14.1 µM (inactive)
- GI50 (BT-549): 17.5 µM (inactive)
- GI50 (CAKI-1): 14.8 µM (inactive)
- GI50 (CCRF-CEM): < 0.0333 µM (active)
- GI50 (COLO 205): 0.119 µM (active)
- GI50 (DU-145): > 100 µM (inactive)
- GI50 (EKVX): 15.3 µM (inactive)
- GI50 (HCC 2998): 44.9 µM (inactive)
- GI50 (HCT-116): 1.03 µM (active)
- GI50 (HCT-15): 21.1 µM
- GI50 (HOP-62): > 43.1 µM (inactive)
- GI50 (HOP-92): 16.3 µM (inactive)
- GI50 (HT-29): 0.397 µM (active)
- GI50 (Hs-578T): 54.6 µM (inactive)
- GI50 (IGROV-1): 1.8 µM (inactive)
- GI50 (K562): < 0.01 µM (active)
- GI50 (KM12): 1.55 µM (inactive)
- GI50 (LOX IMVI): 12.6 µM (inactive)
- GI50 (M14): 3.47 µM (inactive)
- GI50 (MCF7): 8.93 µM (inactive)
- GI50 (MDA-MB-231): 41.9 µM (inactive)
- GI50 (MDA-MB-435): 1 µM (active)
- GI50 (MDA-N): 20 µM (inactive)
- GI50 (MOLT-4): < 0.01 µM (active)
- GI50 (Malme-3M): 15.8 µM (inactive)
- GI50 (NCI-H226): 27 µM (inactive)
- GI50 (NCI-H23): 26.8 µM (inactive)
- GI50 (NCI-H460): < 0.01 µM (active)
- GI50 (NCI-H522): 12.6 µM (inactive)
- GI50 (NCI/ADR-RES): 28.1 µM (inactive)
- GI50 (OVCAR-3): > 35.8 µM (inactive)
- GI50 (OVCAR-4): 7.48 µM (inactive)
- GI50 (OVCAR-5): > 100 µM (inactive)
- GI50 (OVCAR-8): 0.168 µM (active)
- GI50 (PC-3): 0.174 µM (active)
- GI50 (RPMI-8226): < 0.0247 µM (active)
- GI50 (RXF 393): > 100 µM (inactive)
- GI50 (SF-268): > 91.4 µM (inactive)
- GI50 (SF-539): 29.3 µM (inactive)
- GI50 (SK-MEL-2): > 32.1 µM (inactive)
- GI50 (SK-MEL-5): 0.0966 µM (active)
- GI50 (SK-OV-3): > 100 µM (inactive)
- GI50 (SN12C): > 48.1 µM (inactive)
- GI50 (SNB-19): 73.3 µM (inactive)
- GI50 (SNB-75): > 100 µM (inactive)
- GI50 (SW-620): 6.92 µM (inactive)
- GI50 (T47D): 2.35 µM (inactive)
- GI50 (TK-10): 68.7 µM (inactive)
- GI50 (U-251): 37.6 µM (inactive)
- GI50 (UACC-257): 1.3 µM (inactive)
- GI50 (UO-31): 0.0178 µM (active)

Structure (SMILES): CCOC(=O)CCCn1cc(C(=O)OC)nn1
- GI50 (786-0): > 100 µM (inactive)
- GI50 (A549): > 100 µM (inactive)
- GI50 (ACHN): > 100 µM (inactive)
- GI50 (BT-549): > 100 µM (inactive)
- GI50 (CAKI-1): > 100 µM (inactive)
- GI50 (CCRF-CEM): > 100 µM (inactive)
- GI50 (COLO 205): > 100 µM (inactive)
- GI50 (DU-145): > 100 µM (inactive)
- GI50 (EKVX): > 100 µM (inactive)
- GI50 (HCC 2998): > 100 µM (inactive)
- GI50 (HCT-116): > 100 µM (inactive)
- GI50 (HCT-15): > 100 µM
- GI50 (HOP-62): > 100 µM (inactive)
- GI50 (HOP-92): > 100 µM (inactive)
- GI50 (HT-29): > 100 µM (inactive)
- GI50 (Hs-578T): > 100 µM (inactive)
- GI50 (IGROV-1): > 100 µM (inactive)
- GI50 (KM12): > 100 µM (inactive)
- GI50 (LOX IMVI): > 100 µM (inactive)
- GI50 (MCF7): > 100 µM (inactive)
- GI50 (MDA-MB-231): > 100 µM (inactive)
- GI50 (MDA-MB-435): > 100 µM (inactive)
- GI50 (MDA-N): > 100 µM (inactive)
- GI50 (MOLT-4): > 100 µM (inactive)
- GI50 (Malme-3M): > 100 µM (inactive)
- GI50 (NCI-H226): > 100 µM (inactive)
- GI50 (NCI-H23): > 100 µM (inactive)
- GI50 (NCI-H460): > 100 µM (inactive)
- GI50 (NCI/ADR-RES): > 100 µM (inactive)
- GI50 (OVCAR-4): > 100 µM (inactive)
- GI50 (OVCAR-8): > 100 µM (inactive)
- GI50 (PC-3): > 100 µM (inactive)
- GI50 (RXF 393): > 100 µM (inactive)
- GI50 (SF-268): > 100 µM (inactive)
- GI50 (SF-295): 46.5 µM (inactive)
- GI50 (SF-539): > 100 µM (inactive)
- GI50 (SK-MEL-28): > 100 µM (inactive)
- GI50 (SK-MEL-2): > 100 µM (inactive)
- GI50 (SK-MEL-5): > 100 µM (inactive)
- GI50 (SN12C): > 100 µM (inactive)
- GI50 (SNB-19): > 100 µM (inactive)
- GI50 (SNB-75): > 100 µM (inactive)
- GI50 (SW-620): > 100 µM (inactive)
- GI50 (T47D): > 100 µM (inactive)
- GI50 (TK-10): > 100 µM (inactive)
- GI50 (U-251): > 100 µM (inactive)
- GI50 (UACC-257): > 100 µM (inactive)
- GI50 (UACC-62): > 100 µM (inactive)
- GI50 (UO-31): > 100 µM (inactive)
